# Data as given in patent US12503476B2, “Ring-fused 2-pyridone compounds, methods for preparation thereof and their use in the treatment and/or prevention of a disease involving gram-positive bacteria” (QURETECH BIO AB, priority 2020, dated 2025).
# Read-outs that look alike come from different tables or passages of the source.
# What was measured:
# [1] = system: E. faecalis OG1RF; assay: Combined activity with gentamicin, vancomycin or ampicillin, E. faecalis OG1RF; format: cell-based, Enterococcus faecalis; conditions: gentamicin 16 μg/ml; for Synergistic effect when combined with gentamicin: 24 h; for E. faecalis activity, combination with gentamicin compared to gentamicin alone, compound alone and comparative example alone / E. faecalis activity, combination with gentamicin compared to the combination of the comparative example and gentamicin: subinhibitory compound 1-4 μM, OD600 24 h
# Method: […]. The concentrations used in the experiments with E. faecalis OG1RF were 16 μg/ml gentamicin, 1 μg/ml vancomycin or 1 μg/ml ampicillin. In experiments where combinations were tested against MRSA 1369, 0.05 μg/ml gentamicin, 1 μg/ml vancomycin or 16 μg/ml ampicillin was used.
# Bacterial cultures (190 μl) at a starting OD=0.001 at OD600 were incubated together with either subinhibitory concentrations of gentamicin/vancomycin/ampicillin or compound alone, or a combination of the two. The cultures (200 μl) were incubated at 37° C. for 24 h. A control sample without compound and gentamicin/vancomycin/ampicillin but containing compound vehicle (DMSO) and gentamicin/vancomycin/ampicillin vehicle (MQ water) was performed the same way. After 24 h, the effect on bacterial growth compared to untreated control samples was determined by measuring optical density at 600 nm with a spectrophotometer.
# […]. MIC/MBC values for the compounds administered alone are also shown for comparison. Unless otherwise stated, the compound was provided in a concentration of 1 μM.
# [2] = system: E. faecalis; assay: Minimum Bactericidal Concentration (MBC) assay, E. faecalis; conditions: for MBC: Enterococcus faecalis, read-out: MBC for E. faecalis; for MBC for E. faecalis: second figure of MIC/MBC
# [3] = system: MRSA; assay: Minimum Bactericidal Concentration (MBC) assay, MRSA; conditions: for MBC: Staphylococcus aureus, MRSA; for MBC for MRSA: Table 3
# [4] = system: MRSA; assay: Minimum Inhibitory Concentration (MIC) assay, MRSA; format: cell-based, Methicillin-resistant Staphylococcus aureus; conditions: 24 h, read-out: MIC for MRSA
# Method: (§1) The cultures (200 μl) were incubated at 37° C. for 24 h. […] The MIC was measured in micromolar concentration, i.e. μM. Objectively, this was determined by measuring the optical density (i.e. OD) of the test cultures at 600 nm using a spectrophotometer. As used herein, OD600 stands for optical density at a wavelength of 600 nm (i.e. 600 nanometers).
# [5] = system: E. faecalis; assay: Minimum Inhibitory Concentration (MIC) assay, E. faecalis; format: cell-based, Enterococcus faecalis; conditions: for MIC: read-out: MIC for E. faecalis; for Growth inhibition of the pathogen of interest compared to the compound of Example 14 in WO 2018/229141: conclusion from Table 3 (E. faecalis and MRSA)
# Method: as §1
# [6] = compound 1 μM, n.d. = activity not observed
# [7] = read-out: MBC for MRSA, Table 3, compound alone, no antibiotic, MIC cultures plated on BHI, second figure of MIC/MBC, n.d. = activity not observed at the concentrations tested
# [8] = Staphylococcus aureus, MRSA, Table 3, compound alone, no antibiotic, 37° C., OD600, first figure of MIC/MBC, n.d. = activity not observed at the concentrations tested
# [9] = Enterococcus faecalis, 24 h, Table 3, compound alone, no antibiotic, 24 h, 37° C., OD600, first figure of MIC/MBC, n.d. = activity not observed at the concentrations tested
# [10] = Enterococcus faecalis, Table 4, compound administered alone, first figure of MIC/MBC, n.d. = activity not observed
# [11] = compound alone, no antibiotic, MIC cultures plated on BHI, second figure of MIC/MBC, n.d. = activity not observed at the concentrations tested
# [12] = Table 3, compound alone, no antibiotic, 24 h, 37° C., OD600, first figure of MIC/MBC, n.d. = activity not observed at the concentrations tested
# [13] = Table 3, compound alone, no antibiotic, 37° C., OD600, first figure of MIC/MBC, n.d. = activity not observed at the concentrations tested
Compound,OD600 at 24 h when combined with gentamicin ([1]; compound 1 μM),"Synergistic effect when combined with gentamicin [1, 6]",MBC [2] [µM],"MBC [3, 7] [µM]","MIC [4, 8] [µM]","MIC [5, 9] [µM]","MIC [5, 10] [µM]",Growth inhibition of the pathogen of interest compared to the compound of Example 14 in WO 2018/229141 ([5]; compound alone),also measured
O=C(O)C12C[C@@H](c3cccc(Br)c3)C1Sc1c(C3CC3)c(Cc3cccc4ccccc34)cc(=O)n12 (stereo partly drawn) [Example 17],OD 600 = 0,Yes,25,7.5,3,4,4,substantially similar extent or to a higher extent,"E. faecalis activity, combination with gentamicin compared to gentamicin alone, compound alone and comparative example alone [1]: much larger extent; E. faecalis activity, combination with gentamicin compared to the combination of the comparative example and gentamicin [1]: much larger extent"
CN(C)c1c(Cc2cccc3ccccc23)c(C2CC2)c2n(c1=O)C1(C(=O)O)C[C@@H](c3cccc(C(F)(F)F)c3)C1S2 (stereo partly drawn) [Example 5],OD600 = 0,Yes,25,4,3,5,5,substantially similar extent or to a higher extent,"E. faecalis activity, combination with gentamicin compared to gentamicin alone, compound alone and comparative example alone [1]: much larger extent; E. faecalis activity, combination with gentamicin compared to the combination of the comparative example and gentamicin [1]: much larger extent"
O=C(O)C12C[C@@H](c3ccc(C(F)(F)F)cc3)C1Sc1c(C3CC3)c(Cc3cccc4ccccc34)cc(=O)n12 (stereo partly drawn) [Example 8],,,,10,5,5,,substantially similar extent or to a higher extent,
Cc1cccc([C@@H]2CC3(C(=O)O)C2Sc2c(C4CC4)c(Cc4cccc5ccccc45)cc(=O)n23)c1 (stereo partly drawn) [Example 19A],,Yes,25,,,,,substantially similar extent or to a higher extent,"MBC ([3]; read-out: MBC for MRSA): 10 µM; MIC ([4]; Staphylococcus aureus, MRSA): 5 µM; MIC ([5]; Enterococcus faecalis, 24 h): 7.5 µM; MIC ([5]; Enterococcus faecalis): 7.5 µM"
O=c1cc(Cc2cccc3ccccc23)c(-c2cccc(C(F)(F)F)c2)c2n1C(CCB(O)O)CS2 (stereo not drawn) [Example 37],,,,,50,,,,OD600 at 24 h when combined with gentamicin ([1]; compound 10 μM): OD600 = 0; Synergistic effect when combined with gentamicin ([1]; compound 10 μM): Yes
CN(C)c1c(Cc2cccc3ccccc23)c(C2CC2)c2n(c1=O)C1(C(=O)O)C[C@@H](c3cccc(Cl)c3)C1S2 (stereo partly drawn) [Example 13],OD600 = 0,Yes,25,4,2,3,3,substantially similar extent or to a higher extent,"E. faecalis activity, combination with gentamicin compared to gentamicin alone, compound alone and comparative example alone [1]: much larger extent; E. faecalis activity, combination with gentamicin compared to the combination of the comparative example and gentamicin [1]: much larger extent"
O=C(O)C12C[C@@H](c3cccc(Cl)c3)C1Sc1c(C3CC3)c(Cc3cccc4ccccc34)cc(=O)n12 (stereo partly drawn) [Example 9],OD600 = 0.1,Yes,25,,5,,5,substantially similar extent or to a higher extent,"MBC for E. faecalis ([2]; Table 4, compound administered alone, n.d. = activity not observed): 25 µM; MBC for MRSA [3, 11]: 1 µM; MIC [5, 12]: 5 µM"
COc1c(Cc2cccc3ccccc23)c(N(C)C)c(=O)n2c1SC1[C@H](c3cccc(C(F)(F)F)c3)CC12C(=O)O (stereo partly drawn) [Example 29],,,,7.5,7.5,25,,,
O=C(O)C12C[C@@H](c3cccc(Cl)c3)C1Sc1c(C3CC3)c(Cc3cccc4ccccc34)cc(=O)n12 (stereo partly drawn) [Example 10],,,,,,,,,"MBC for MRSA [3, 11]: 10 µM; MIC [4, 13]: 5 µM; MIC [5, 12]: 10 µM"
O=C(O)C12C[C@@H](Sc3ccccc3)C1Sc1c(C3CC3)c(Cc3cccc4ccccc34)cc(=O)n12 (stereo partly drawn) [Example 27],,,,,10,,,,
CCCOc1ccc([C@@H]2CC3(C(=O)O)C2Sc2c(C4CC4)c(Cc4cccc5ccccc45)cc(=O)n23)cc1C (stereo partly drawn) [Example 22],,,,4,4,4,,substantially similar extent or to a higher extent,"E. faecalis activity, combination with gentamicin compared to gentamicin alone, compound alone and comparative example alone [1]: much larger extent; E. faecalis activity, combination with gentamicin compared to the combination of the comparative example and gentamicin [1]: much larger extent"
Cc1cc(C)cc([C@@H]2CC3(C(=O)O)C2Sc2c(C4CC4)c(Cc4cccc5ccccc45)cc(=O)n23)c1 (stereo partly drawn) [Example 21],OD600 = 0.1,Yes,25,7.5,3,5,5,substantially similar extent or to a higher extent,"E. faecalis activity, combination with gentamicin compared to gentamicin alone, compound alone and comparative example alone [1]: much larger extent"
"O=C(O)C12C[C@@H](c3cccc(C(F)(F)F)c3)C1Sc1c(C3CC3)c(Cc3cccc4ccccc34)cc(=O)n12 (single isomer, unassigned) [Example 1]",,,,,,,10,,"Synergistic effect when combined with gentamicin ([1]; compound 2 μM): Yes; MBC for E. faecalis ([2]; Table 3, compound alone, no antibiotic, MIC cultures plated on BHI, n.d. = activity not observed at the concentrations tested): 25 µM; MBC for MRSA [3, 11]: 10 µM; MIC [4, 13]: 5 µM; MIC [5, 12]: 10 µM"
O=C(O)C12C[C@H](Sc3ccccc3)C1Sc1c(C3CC3)c(Cc3cccc4ccccc34)cc(=O)n12 (stereo partly drawn) [Example 28],,,,,25,,,,
Cc1cc(C)cc([C@@H]2CC3(C(=O)O)C2Sc2c(C4CC4)c(Cc4cccc(Cl)c4Cl)cc(=O)n23)c1 (stereo partly drawn) [Example 31],,,,,5,,,,
"O=C(O)C12C[C@@H](c3cccc(C(F)(F)F)c3)C1Sc1c(C3CC3)c(Cc3cccc4ccccc34)cc(=O)n12 (single isomer, unassigned) [Example 2]",OD600 = 0.1,Yes,,,,,,,"MBC for MRSA [3, 11]: 10 µM; MIC [4, 13]: 5 µM; MIC [5, 12]: 10 µM; MIC ([5]; Table 4, compound administered alone, first figure of MIC/MBC, n.d. = activity not observed): 10 µM"
O=c1cc(Cc2cccc3ccccc23)c(C2CC2)c2n1C(CCB(O)O)CS2 (stereo not drawn) [Example 35],,,,,50,,,,OD600 at 24 h when combined with gentamicin ([1]; compound 25 μM): OD600 = 0; Synergistic effect when combined with gentamicin ([1]; compound 25 μM): Yes
CCCCOc1ccc([C@@H]2CC3(C(=O)O)C2Sc2c(C4CC4)c(Cc4cccc5ccccc45)cc(=O)n23)cc1C (stereo partly drawn) [Example 23],OD600 = 0,Yes,,5,3,3,3,substantially similar extent or to a higher extent,
O=C(O)C12C[C@H](c3cc(Cl)cc(Cl)c3)C1Sc1c(C3CC3)c(Cc3cccc4ccccc34)cc(=O)n12 (stereo partly drawn) [Example 16],,,,,10,10,,,
O=C(O)C12C[C@@H](c3c(Cl)cccc3Cl)C1Sc1c(C3CC3)c(Cc3cc4ccccc4s3)cc(=O)n12 (stereo partly drawn) [Example 34],,,,,5,,,,
